Test results reported in PubChem BioAssay (NCI).
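In this assay, cells in 96-well plates receive the compound at five concentrations for 48 hours. Endpoints are linearly interpolated between the surrounding concentrations. GI50: concentration for 50% inhibition of growth. Definition used: TGI = concentration required for complete inhibition of growth.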

Assays:
Experiment in all cases: growth of human tumour cells (NCI), 48 h
[1] = tested on: HT29 colon
[2] = tested on: UACC-62 melanoma
[3] = tested on: A549 NSCLC
[4] = tested on: OVCAR-8 ovarian
[5] = tested on: M14 melanoma
[6] = tested on: MOLT-4 leukemia
[7] = tested on: SK-MEL-5 melanoma
[8] = tested on: MCF7 breast
[9] = tested on: SNB-75 CNS

COc1ccc(C[n+]2cccc(O)c2)cc1
TGI [1]: > 100 µM
TGI [2]: > 100 µM
TGI [3]: > 100 µM
TGI [4]: > 100 µM
TGI [5]: > 100 µM
TGI [6]: > 100 µM
TGI [7]: > 100 µM
TGI [8]: > 100 µM

Cc1cccc2c(N)c3cccc(C(=O)NCC[N+](C)(C)Cc4ccc(S(C)(=O)=O)cc4)c3nc12
TGI [1]: > 100 µM
TGI [2]: > 100 µM
TGI [3]: > 100 µM
TGI [4]: > 100 µM
TGI [5]: > 100 µM
TGI [7]: > 100 µM
TGI [8]: > 100 µM
TGI [9]: > 100 µM

CC(=O)c1cc(CC2Cc3cc4c(cc3C2=O)CCC4)cc2c1CCC2 (configuration not stated)
TGI [1]: > 100 µM
TGI [2]: > 100 µM
TGI [3]: > 100 µM
TGI [4]: > 100 µM
TGI [5]: > 100 µM
TGI [6]: 90.5 µM
TGI [7]: 61.2 µM
TGI [8]: > 100 µM
TGI [9]: > 100 µM

CC(O)CC(=O)CO[C@H]1[C@H](O)[C@@H](O)[C@@H](O)[C@@H]2NC(=O)c3c(cc4c(c3O)OCO4)[C@H]21 (some centres not stated)
TGI [1]: 0.179 µM
TGI [2]: 0.682 µM
TGI [3]: 0.352 µM
TGI [4]: 1.53 µM
TGI [5]: 0.149 µM
TGI [6]: 0.321 µM
TGI [7]: 0.0623 µM
TGI [8]: 0.461 µM
TGI [9]: 0.404 µM

O=c1oc2ccc3ccccc3c2cc1-c1nc(-c2ccc([N+](=O)[O-])cc2)n[nH]1
TGI [1]: > 100 µM
TGI [2]: > 100 µM
TGI [3]: > 100 µM
TGI [4]: 94.6 µM
TGI [5]: > 100 µM
TGI [6]: > 100 µM
TGI [7]: > 100 µM
TGI [8]: > 100 µM

COC(=O)CNC(=O)CNC(=O)CSc1nnc(COc2ccc(Cl)cc2)n1-c1ccccc1
TGI [1]: > 100 µM
TGI [2]: 33.5 µM
TGI [3]: > 100 µM
TGI [4]: > 100 µM
TGI [5]: > 100 µM
TGI [6]: > 100 µM
TGI [7]: 41 µM
TGI [8]: > 100 µM
TGI [9]: 60.2 µM

Clc1ccc(OCc2nnc3sc(SSc4nn5c(COc6ccc(Cl)cc6)nnc5s4)nn23)cc1
TGI [1]: > 100 µM
GI50 [2]: 44.7 µM
TGI [2]: > 100 µM
TGI [3]: > 100 µM
TGI [4]: > 100 µM
TGI [5]: > 100 µM
TGI [7]: > 100 µM
GI50 [8]: 45 µM
TGI [8]: > 100 µM
TGI [9]: > 100 µM

CC(=O)c1cc2c(s1)C(=O)c1ccsc1C2=O
TGI [1]: 4.19 µM
TGI [2]: 0.688 µM
TGI [3]: 4.2 µM
TGI [4]: 1.59 µM
TGI [5]: 1.2 µM
TGI [6]: 2.17 µM
TGI [7]: 0.262 µM
TGI [8]: 1.68 µM
TGI [9]: 0.367 µM

CCOc1cc(/C=N/c2nc3cc4sc(/N=C/c5ccc(O)c(OCC)c5)nc4cc3s2)ccc1O
TGI [1]: > 100 µM
TGI [2]: > 100 µM
TGI [3]: > 100 µM
TGI [4]: > 100 µM
TGI [5]: > 100 µM
TGI [6]: > 100 µM
TGI [7]: > 100 µM
TGI [8]: > 100 µM
TGI [9]: > 100 µM

CCOC(CN(C)C(=O)Nc1ccc(Cl)c(Cl)c1)OCC
TGI [1]: > 10 µM
TGI [2]: > 10 µM
TGI [3]: > 10 µM
TGI [4]: > 10 µM
TGI [5]: > 10 µM
TGI [6]: > 10 µM
TGI [7]: > 10 µM
TGI [8]: > 10 µM
TGI [9]: > 10 µM

O=C1NC(=S)N/C1=C\c1ccc(Cl)cc1
TGI [1]: > 100 µM
TGI [2]: > 100 µM
TGI [3]: > 100 µM
TGI [4]: > 100 µM
TGI [5]: > 100 µM
TGI [6]: > 100 µM
TGI [7]: > 100 µM
TGI [8]: > 100 µM
TGI [9]: > 100 µM

CSCCC(NC(=O)Cc1ccc(C(=O)c2ccccc2)cc1)C(=O)N1CCN(CCCCN2c3ccccc3Sc3cc(N=[N+]=[N-])ccc32)CC1 (configuration not stated)
TGI [1]: > 100 µM
TGI [2]: > 100 µM
TGI [6]: > 100 µM
TGI [7]: > 100 µM
TGI [8]: > 100 µM

O=[N+]([O-])c1ccc(NNN=Nc2ccc(-c3nc4ccccc4[nH]3)cc2)c([N+](=O)[O-])c1
TGI [1]: > 100 µM
TGI [2]: 38 µM
TGI [3]: > 100 µM
TGI [4]: > 100 µM
TGI [5]: > 100 µM
TGI [6]: > 100 µM
TGI [7]: 87.5 µM
TGI [8]: 57.6 µM
TGI [9]: > 100 µM

CC1=NNC(=O)C1C1CC(c2c[nH]c3ccccc23)=NN(c2ccccc2)C1=O (configuration not stated)
TGI [1]: > 100 µM
TGI [2]: > 100 µM
TGI [3]: > 100 µM
TGI [4]: > 100 µM
TGI [5]: > 100 µM
TGI [6]: > 100 µM
TGI [7]: > 100 µM
TGI [9]: > 100 µM

O=C(c1cc(Cl)cc(Cl)c1)N(Cc1cccnc1)C(=S)N(Cc1cccnc1)C(=O)c1cc(Cl)cc(Cl)c1
TGI [1]: > 100 µM
TGI [2]: > 100 µM
TGI [3]: > 100 µM
TGI [4]: 79.5 µM
TGI [5]: 72 µM
TGI [6]: > 100 µM
TGI [7]: 76 µM
TGI [8]: > 100 µM
TGI [9]: > 100 µM

COC(O)C(=O)c1c2c(cc3c1CCC3)CCC2 (configuration not stated)
TGI [1]: > 100 µM
TGI [2]: > 100 µM
TGI [3]: > 100 µM
TGI [4]: > 100 µM
TGI [5]: > 100 µM
TGI [6]: > 100 µM
TGI [7]: > 100 µM
TGI [8]: > 100 µM
TGI [9]: > 100 µM

COc1ccc2nc3cc([N+](=O)[O-])ccc3c(NNc3ccc([N+](=O)[O-])cc3)c2c1
TGI [1]: > 63.9 µM
TGI [2]: > 50.7 µM
TGI [3]: > 100 µM
TGI [4]: > 100 µM
TGI [5]: > 100 µM
TGI [6]: > 100 µM
TGI [7]: 61.4 µM
TGI [8]: > 100 µM
TGI [9]: > 100 µM

CN1C(=O)N/C(=C\c2ccc(S(=O)(=O)N/N=C/c3ccccc3)cc2)C1=O
TGI [1]: > 100 µM
TGI [2]: > 100 µM
TGI [3]: > 100 µM
TGI [4]: > 100 µM
TGI [5]: > 100 µM
TGI [6]: 83.7 µM
TGI [7]: 27.7 µM
TGI [8]: 68.5 µM
TGI [9]: > 100 µM

N#CC(NNC(=O)c1c(Cl)c(Cl)c(Cl)c(Cl)c1-c1nc2ccc(C(=O)c3ccccc3)cc2[nH]1)c1ccccc1 (configuration not stated)
TGI [1]: > 100 µM
TGI [3]: > 100 µM
TGI [4]: > 100 µM
TGI [5]: 31.1 µM
TGI [6]: 27.7 µM
TGI [7]: 13.3 µM
TGI [8]: 12.7 µM
TGI [9]: 27.8 µM

C=C1C2C[C@@H]3O[C@H]4C[C@H]5O[C@@]6(C[C@@H]7O[C@]8(C[C@H](C)[C@@H]9O[C@@H]%10CC(C=O)O[C@@H]%10C[C@@H]9O8)C[C@H](C)[C@@H]7O6)C[C@H]5O[C@H]4[C@H](C)[C@H]3OC(=O)C[C@H]3CC[C@@H]4OC5[C@H]6O[C@]7(CC[C@H]8CC(=C)[C@H](CC[C@@H](C[C@H]1C)O2)O8)CC6O[C@@H]5[C@@H](O7)[C@H]4O3 (some centres not stated)
TGI [2]: > 1 µM
TGI [3]: > 1 µM
TGI [5]: > 1 µM
TGI [6]: > 1 µM
TGI [7]: > 1 µM
TGI [8]: > 1 µM
TGI [9]: > 1 µM

COC(=O)CN=C1NC(=S)N(Cc2ccc(OC)cc2)C12CCCC2
TGI [1]: > 100 µM
TGI [2]: > 100 µM
TGI [3]: > 100 µM
TGI [4]: > 100 µM
TGI [5]: > 100 µM
TGI [6]: > 100 µM
TGI [8]: > 100 µM
TGI [9]: > 100 µM

O=C1CNc2cc(N3CCOCC3)ccc2N1
TGI [1]: > 100 µM
TGI [2]: > 100 µM
TGI [3]: > 100 µM
TGI [4]: > 100 µM
TGI [5]: > 100 µM
TGI [6]: > 100 µM
TGI [7]: > 100 µM
TGI [9]: > 100 µM

N#CC(c1ccccc1)N(CCc1ccccc1)C(=O)c1ccc(C(=O)N(CCc2ccccc2)C(C#N)c2ccccc2)cc1 (configuration not stated)
TGI [1]: 38.6 µM
TGI [2]: 35.6 µM
TGI [3]: > 100 µM
TGI [4]: 34.6 µM
TGI [5]: 79 µM
TGI [7]: 27.2 µM
TGI [8]: > 100 µM
TGI [9]: 45.8 µM

Clc1ccc(C2CC(c3cccc(Nc4ccncc4)c3)=NN2c2ccccc2)cc1 (configuration not stated)
GI50 [1]: 1690 nM
TGI [1]: 3.62 µM
GI50 [2]: 1.71 µM
TGI [2]: 3.13 µM
GI50 [5]: 1730 nM
TGI [5]: 3.37 µM
GI50 [6]: 1830 nM
TGI [6]: 4.32 µM
GI50 [7]: 1820 nM
TGI [7]: 3.26 µM
GI50 [8]: 1.65 µM
TGI [8]: 3.44 µM
GI50 [9]: 1370 nM
TGI [9]: 2.79 µM

COc1ccc(C(OC(=O)[C@H](O[Si](C)(C)C(C)(C)C)[C@@H](NC(=O)c2ccccc2)c2ccccc2)c2ccc(OC)cc2)cc1
TGI [1]: > 100 µM
TGI [2]: > 100 µM
TGI [3]: > 100 µM
TGI [4]: > 100 µM
TGI [6]: > 100 µM
TGI [7]: > 100 µM
TGI [8]: > 100 µM
TGI [9]: > 100 µM

Fc1cc(C2=Nn3c(CNc4ccc(Cl)cc4)nnc3S/C2=C\c2ccc(-c3ccc(Cl)cc3)o2)c(Cl)cc1Cl
TGI [1]: > 100 µM
TGI [2]: 55.8 µM
TGI [3]: > 100 µM
TGI [4]: > 100 µM
TGI [5]: > 100 µM
TGI [6]: > 100 µM
TGI [7]: > 100 µM
TGI [8]: > 100 µM

CNCCCn1c2c(c3ccc(Cl)cc3c1=O)C(=O)c1cc(OC)cnc1-2
GI50 [1]: 1080 nM
TGI [1]: 2.45 µM
GI50 [4]: 1180 nM
TGI [4]: 3.5 µM
GI50 [5]: 569 nM
TGI [5]: 1.89 µM
GI50 [7]: 1120 nM
TGI [7]: 2.49 µM
GI50 [9]: 263 nM
TGI [9]: 1.78 µM

CC1=NN(c2cccc(Cl)c2)C2(C1=Cc1cccs1)C(Cl)C(=O)N2c1nc2ccccc2s1 (configuration not stated)
TGI [1]: 46 µM
TGI [3]: 63.7 µM
TGI [4]: 48.2 µM
TGI [5]: > 100 µM
TGI [6]: 57.1 µM
TGI [7]: 36.2 µM
TGI [8]: 69.5 µM
TGI [9]: 86.3 µM

Cc1ccc(C(=O)O)c(/C=C2\Cc3cc(C)cc(C)c3C2=O)c1
TGI [1]: > 100 µM
TGI [2]: > 100 µM
TGI [3]: > 100 µM
TGI [4]: > 100 µM
TGI [6]: > 100 µM
TGI [7]: > 100 µM
TGI [8]: > 100 µM
TGI [9]: > 100 µM

O=[N+]([O-])c1ccc(Cc2nc3cc4ccccc4cc3[nH]2)cc1C(F)(F)F
TGI [1]: > 100 µM
TGI [3]: 64.8 µM
TGI [4]: 48.5 µM
TGI [5]: 25.2 µM
TGI [6]: 87.7 µM
TGI [7]: 25.1 µM
TGI [8]: 55.5 µM
TGI [9]: 37.3 µM

C/C(=N\Nc1nc2ccccc2o1)c1ncccn1
TGI [1]: 45.4 µM
TGI [2]: 0.449 µM
TGI [3]: 12.1 µM
TGI [4]: 0.404 µM
TGI [5]: 0.295 µM
TGI [6]: 0.0282 µM
TGI [7]: 13.9 µM

CC(C)(C)CNCCCNc1ccc(Cl)cc1
TGI [1]: 56.5 µM
TGI [2]: 33.4 µM
TGI [3]: > 100 µM
TGI [4]: > 100 µM
TGI [5]: 58.6 µM
TGI [6]: 25.6 µM
TGI [8]: 46 µM
